According to a melting point compilation (Tetko et al.; mined from patent text by program, amines drawn as free bases though some values may be those of a salt):

| melting point [°C] | Structure (SMILES) |
| --- | --- |
| 162 to 164 | COCCNC(=O)c1ccc(-c2ccc3nnn(Cc4ccc5ncccc5c4)c3n2)cc1F |
| 87 to 89 | CCCS(=O)(=O)c1ccc2c(c1)C(=O)C(Br)C2 (centres undefined) |
| 153 to 157 | COc1cc(CCNC(=O)[C@@H](NS(C)(=O)=O)C(C)C)ccc1OCc1cccc2ccccc12 |
| 198 | CC(=O)c1ccc(-c2nc(=O)c3ccccc3s2)cc1 |
| 179 to 181 | COc1c(Cl)ccc(-c2cc(N)c(Cl)c(C(=O)NOCc3nnsc3Cl)n2)c1F |
| 238 to 240 | Cc1ccc(-c2c3c(cc4ccc(O)cc24)-c2ccc(O)cc2CO3)cc1 |
| 42 to 43 | CCCOc1ccc(CCCCCC(=O)O)cc1 |
| 72 | O=C(OCc1ccccc1)C1Cc2sccc2C(=O)N1Cc1ccccc1 (centres undefined) |
| 207 to 209 | CC(=O)C1CCC2C3CC=C4CCCCC4(C)C3CCC12C (centres undefined) |
| 127 to 129 | C#CCn1c(=O)cc(-c2ccccc2)c2cccnc21 |
| 235 | Cn1c(=O)c(C#N)c(Cl)c2ccccc21 |
| 195 to 197 | COC(=O)CCc1ccc(N2CCN(C34CCC(C#N)(CC3)CC4)C2=O)cc1 |
| 86 to 87 | O=C(c1ccccc1I)N1CCOCC1 |
| 265 to 266 | NS(=O)(=O)c1ccc(-n2sc3cc(F)ccc3c2=O)cc1 |
| 240 to 242 | COc1cc(COc2cccc(CC(=O)O)c2-c2cccc(C(=O)O)c2)ccc1C12CC3CC(CC(C3)C1)C2 |
| 145 to 147 | CCCCc1nn(-c2cc([N+](=O)[O-])ccc2Cl)c(=O)[nH]1 |
| 86 to 88 | CCOC(=O)c1cc(NC(=O)C2=C(CC)OCCS2)ccc1Cl |
| 145 | CC(C)(C)C(COC(N)=O)(NC(=O)C(=O)c1c[nH]c2cc(Br)ccc12)c1c[nH]c2ccccc12 (centres undefined) |
| 93 to 96 | Cc1ccc(C#N)c(Sc2ccc(F)cc2)c1 |
| 116 to 120 | CCC(CC)C(NS(=O)(=O)c1cc(Cl)c(Cl)s1)c1ccnn1-c1ccccc1 (centres undefined) |
| 84 to 87 | COc1c2c(c(OC)c(OC)c1OC)CCC(CCn1ccccc1=O)CC2 |

| melting point [°C] | Structure (SMILES) |
| --- | --- |
| 177 to 179 | CCn1nc(-c2ccc(F)cc2)c(-c2ccc(S(C)(=O)=O)cc2)cc1=O |
| 74 to 77 | C[C@@H](C(=O)O)N(C)C(=O)CCSSc1ccc([N+](=O)[O-])cc1 |
| 219 to 221 | CCOC(=O)c1cc2c(Cl)ncnc2[nH]1 |
| 80 to 82 | CCCCC(OC(C)=O)c1ccccc1COc1cccc2cccnc12 (centres undefined) |
| 120 to 121 | COc1ccc2c(c1)C(C)(CC(=O)O)C(=O)N2C (centres undefined) |
| 77 to 78 | CC(O)CCc1ccc2c(c1)C(=O)c1ccccc1-2 (centres undefined) |
| 213 to 218 | CC(C)(C)OC(=O)Nc1ccc(C#Cc2ccc(Cl)cc2)cc1[N+](=O)[O-] |
| 101 to 103 | CC(=O)NC(C)(C)c1ccc(CCl)cc1 |
| 201 to 202 | Cc1c(C(=O)Nc2ccc(N3CCOCC3)c(C#N)c2)cnn1-c1ccc(F)cc1 |
| 179 | C=CCOc1ccc(-c2nc3cnccc3[nH]2)c(OC(C)C)c1 |
| 192 to 194 | CC(C)(C)Nc1c(NCc2ccc(F)cc2C(F)(F)F)c(=O)c1=O |
| 208 to 209 | C#Cc1c(NC)c(F)cc2c(=O)c(C(=O)O)cn(-c3cc(N)c(F)cc3F)c12 |
| 158 to 159 | COc1ccc(/C=C(\C#N)c2cc(OC)c(OC)c(OC)c2)cc1[N+](=O)[O-] |
| 170 to 174 | COC(=O)C=C(NC1C=CC=CC1(F)NC(=CC(=O)OC)C(=O)OC)C(=O)OC (centres undefined) |
| 133 to 135 | CCc1nc2c(C)cc(C)nc2n1Cc1ccc2c(c1)CCc1ccccc1N2Cc1ccccc1C#N |
| 160 to 161 | CN(C)C=NS(=O)(=O)c1cc(CCNC(=O)C(F)(F)F)ccc1O |
| 156 to 157 | COC(=O)c1cc(C(=O)NN)c2cc(Cc3ccc(F)cc3)cnc2c1O |
| 192 to 194 | CCCN1CCCC1CNS(=O)(=O)c1ccc(Nc2ccnc3cc(Cl)ccc23)cc1 (centres undefined) |
| 136 | OC1(COc2cccc3onc(OCC4CCN(CC5(O)CCOCC5)CC4)c23)CCCC1 |
| 271 to 272 | O=C(C#Cc1ccc(C(=O)O)cc1)Nc1ccccc1 |
| 266 to 268 | CC1(C)C(=O)Nc2cc3[nH]c(C4CC4)nc3cc21 |

| melting point [°C] | Structure (SMILES) |
| --- | --- |
| 140 | CNC(=O)n1sc(SCc2ccc(Cl)cc2)nc1=O |
| 172 to 173 | O=C1CCC(C(=O)Nc2ccc(-n3nc(C(F)(F)F)cc3C(F)(F)F)cc2)O1 (centres undefined) |
| 160 to 162 | O=C(c1ccccc1)c1ccc2nc(-c3c[nH]c(C(=O)N4CCCC4)c3)[nH]c2c1 |
| 235 to 237 | CC(=O)N1CCC(Nc2ncc3cc(-c4ccccc4C)c(=O)n(C4CCOCC4)c3n2)CC1 |
| 98 to 100 | O=C(O)c1sccc1OC(F)F |
| 138 to 139 | OCc1cn(-c2ccc(C(F)(F)F)cn2)nc1C1CCCCC1 |
| 130 to 132 | CC(C)(C)OC(=O)N[C@@H]1C(=O)N[C@H]1C1CCCCC1 (relative stereo) |
| 64 to 65 | CC(C)(C)OC(=O)N[C@@H]1CCC[C@@H]1O (relative stereo) |
| 128 to 130 | COC(=O)c1c(C)nc(-c2ccccc2)nc1-c1cccc([N+](=O)[O-])c1 |
| 137 | COc1nc(C(F)(F)F)cc(=O)n1-c1cc(OC(C)C)c(Br)cc1F |
| 250 | CCn1c(N)c(C(=O)NC)c(=O)c2cnc(-c3ccc(NC(=O)NCc4cccnc4)cc3)nc21 |
| 168 to 170 | CCOC(=O)c1cn(C[C@@H]2CN(c3ccc(N4CCC5(CC4)OCCO5)c(F)c3)C(=O)O2)nn1 |
| 167 to 168 | CC1CC2(C)C(CCC3C4CCC(C5(C)OCCO5)C4(C)CC(=O)C32)CC1O (centres undefined) |
| 59 to 61 | Cc1cc(OCCCCCl)cc(-c2ccc(F)cc2)n1 |
| 90 to 91 | CCOc1ccc(C2(C(=O)O)CCC2)cc1 |
| 152 to 153 | CC(=O)Oc1ccc(-c2cnc(-c3ccccc3)nc2Cl)cc1OC(C)=O |
| 99 to 100 | CN(C)c1cc(CC#N)cc(Cc2nc3c(F)c(F)cc(F)c3s2)c1 |
| > 300 | CN(C)CC1CCCCN1C(=O)c1ccc(-c2[nH]nc3c2C(=O)c2c(NC(=O)NN4CCOCC4)cccc2-3)s1 (centres undefined) |
| 120 to 122 | CC(C)C[C@@H](OC(=O)c1cc(Cl)ccn1)C(=O)O |
| 142 to 143 | Cc1nnc(-c2ccc3occ(-c4cnn(Cc5ccccc5F)c4)c3c2)o1 |
| 98 to 100 | O=C(CCCc1cccnc1)N1CCC(CC(c2ccccc2)c2ccccc2)CC1 |

| Structure (SMILES) | melting point [°C] |
| --- | --- |
| CC(=O)OC1CC2(C)C(=O)CCC2C2C=CC3=CC(=O)CCC3C12 (centres undefined) | 246 to 248 |
| COc1ccc(COC(=O)c2ncn3c2[C@@H]2CCCN2C(=O)c2c(Cl)cccc2-3)cc1 | 185 to 186 |
| CC(C)N(C(=O)CN1C(=O)CC(=O)N(c2ccccc2)c2ccccc21)c1ccccc1 | 199 to 200 |
| Cc1sc(C2=NOC(c3cc(Cl)cc(Cl)c3)(C(F)(F)F)C2)cc1C(=O)NCC(=O)NCC#N (centres undefined) | 158 to 161 |
| CC(=O)OC1N=C(c2ccccc2Cl)c2c(cn(C)c2C)N(C)C1=O (centres undefined) | 202 to 204 |
| NS(=O)(=O)c1cc(N(CCCl)CCCl)c([N+](=O)[O-])cc1[N+](=O)[O-] | 153 to 154 |
